Assay results published in patent publication US11192877B2, “3-(5-hydroxy-1-oxoisoindolin-2-yl)piperidine-2,6-dione derivatives and uses thereof” (Novartis AG, priority 2018, dated 2021).
Like-named read-outs stand apart in the source and are kept apart here.

Molecular target: IKZF2 (Helios) (Homo sapiens, UniProt Q96SW2+Q9UKS7)
Assay: Prolabel quantification of IKZF2 protein levels in 293GT cells
Assay type: cell-based
Conditions: 24 h, read-out: IKZF2 % protein reduction at 10 μM, 24 h
[1] = Pro-label assay, 293GT cells, 10 μM

Sequence of IKZF2 (Helios) (Q9UKS7 whole entry): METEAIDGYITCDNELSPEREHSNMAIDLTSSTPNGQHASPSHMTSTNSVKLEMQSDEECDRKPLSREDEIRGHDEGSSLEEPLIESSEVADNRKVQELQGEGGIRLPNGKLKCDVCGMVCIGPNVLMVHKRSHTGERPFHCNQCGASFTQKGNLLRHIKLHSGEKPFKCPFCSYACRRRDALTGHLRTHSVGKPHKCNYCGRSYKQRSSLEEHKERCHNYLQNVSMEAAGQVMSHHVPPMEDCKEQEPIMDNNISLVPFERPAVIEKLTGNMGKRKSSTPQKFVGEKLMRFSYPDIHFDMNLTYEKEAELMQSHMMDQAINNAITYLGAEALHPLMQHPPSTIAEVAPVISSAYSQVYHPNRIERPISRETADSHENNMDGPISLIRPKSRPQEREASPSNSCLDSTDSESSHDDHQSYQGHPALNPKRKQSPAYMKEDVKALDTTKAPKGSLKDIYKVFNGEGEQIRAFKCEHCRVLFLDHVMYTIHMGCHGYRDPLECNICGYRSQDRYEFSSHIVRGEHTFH
Sequence of IKZF2 (Helios) (Q96SW2 whole entry): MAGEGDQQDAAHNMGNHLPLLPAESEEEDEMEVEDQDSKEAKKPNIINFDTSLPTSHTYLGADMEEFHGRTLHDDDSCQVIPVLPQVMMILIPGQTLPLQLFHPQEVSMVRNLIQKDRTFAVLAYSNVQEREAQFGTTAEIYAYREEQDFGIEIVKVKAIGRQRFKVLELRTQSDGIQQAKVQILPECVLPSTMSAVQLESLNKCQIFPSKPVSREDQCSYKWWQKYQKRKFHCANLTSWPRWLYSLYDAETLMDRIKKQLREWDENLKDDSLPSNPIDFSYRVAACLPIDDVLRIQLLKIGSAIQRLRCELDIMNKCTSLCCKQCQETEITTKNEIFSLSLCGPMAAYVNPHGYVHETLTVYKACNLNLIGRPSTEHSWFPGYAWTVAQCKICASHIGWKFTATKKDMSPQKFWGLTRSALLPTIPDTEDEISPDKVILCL
Sequence of IKZF2 (Helios) (Q16531 whole entry partner): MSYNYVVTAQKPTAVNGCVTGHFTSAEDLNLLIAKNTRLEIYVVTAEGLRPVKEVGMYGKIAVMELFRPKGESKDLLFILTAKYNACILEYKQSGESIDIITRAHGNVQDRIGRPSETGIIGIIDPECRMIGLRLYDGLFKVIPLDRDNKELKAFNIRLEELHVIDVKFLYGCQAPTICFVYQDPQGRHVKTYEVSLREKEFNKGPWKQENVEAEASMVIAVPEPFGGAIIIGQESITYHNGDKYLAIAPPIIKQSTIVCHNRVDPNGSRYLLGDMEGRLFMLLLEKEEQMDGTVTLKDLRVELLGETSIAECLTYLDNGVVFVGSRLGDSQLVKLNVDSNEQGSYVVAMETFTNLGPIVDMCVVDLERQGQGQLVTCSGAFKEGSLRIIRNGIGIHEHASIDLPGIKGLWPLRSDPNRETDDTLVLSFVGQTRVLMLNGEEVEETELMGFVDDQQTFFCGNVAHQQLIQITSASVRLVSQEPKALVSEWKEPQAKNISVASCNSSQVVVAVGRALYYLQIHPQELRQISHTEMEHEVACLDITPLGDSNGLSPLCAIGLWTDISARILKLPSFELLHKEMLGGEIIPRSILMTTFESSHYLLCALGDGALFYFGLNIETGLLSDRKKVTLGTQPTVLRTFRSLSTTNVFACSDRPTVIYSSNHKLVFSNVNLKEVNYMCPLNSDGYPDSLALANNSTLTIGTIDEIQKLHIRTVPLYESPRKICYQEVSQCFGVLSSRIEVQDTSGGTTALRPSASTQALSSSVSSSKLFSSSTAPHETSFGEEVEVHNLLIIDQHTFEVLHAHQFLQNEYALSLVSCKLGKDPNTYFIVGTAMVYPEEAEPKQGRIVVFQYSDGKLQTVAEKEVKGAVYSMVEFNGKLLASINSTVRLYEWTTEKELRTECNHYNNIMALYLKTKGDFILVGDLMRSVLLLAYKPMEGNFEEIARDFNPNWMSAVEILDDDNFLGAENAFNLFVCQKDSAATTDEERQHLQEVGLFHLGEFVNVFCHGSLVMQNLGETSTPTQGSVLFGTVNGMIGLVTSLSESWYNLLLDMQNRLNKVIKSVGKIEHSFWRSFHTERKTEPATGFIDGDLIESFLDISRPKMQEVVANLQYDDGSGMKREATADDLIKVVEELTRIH

SMILES | IKZF2 % protein reduction at 10 µM [1] | IKZF2 % protein reduction at 10 µM
COC1(C)CCN([C@H]2CCCCC[C@@H]2Oc2ccc3c(c2)CN(C2CCC(=O)NC2=O)C3=O)CC1 (stereo partly drawn) [I-60, 3-(5-(((1S,2S)-2-(4-methoxy-4-methylpiperidin-1-yl)cycloheptyl)oxy)-1-oxoisoindolin-2-yl)piperidine-2,6-dione] | 61% | 
CC(C)CN[C@H]1CCCCC[C@@H]1Oc1ccc2c(c1)CN(C1CCC(=O)NC1=O)C2=O (stereo partly drawn) [I-61, 3-(5-(((1S,2S)-2-(isobutylamino)cycloheptyl)oxy)-1-oxoisoindolin-2-yl)piperidine-2,6-dione] | 84% | 
CCCN[C@H]1CCCCC[C@@H]1Oc1ccc2c(c1)CN(C1CCC(=O)NC1=O)C2=O (stereo partly drawn) [I-62, 3-(1-oxo-5-(((1S,2S)-2-(propylamino)cycloheptyl)oxy)isoindolin-2-yl)piperidine-2,6-dione] | 88% | 
O=C1CCC(N2Cc3cc(O[C@H]4CCCCC[C@@H]4N4CC5(COC5)C4)ccc3C2=O)C(=O)N1 (stereo partly drawn) [I-63, 3-(5-(((1S,2S)-2-(2-oxa-6-azaspiro[3.3]heptan-6-yl)cycloheptyl)oxy)-1-oxoisoindolin-2-yl)piperidine-2,6-dione] | 85% | 
CO[C@H]1CC[C@H](CN[C@H]2CCCCC[C@@H]2Oc2ccc3c(c2)CN(C2CCC(=O)NC2=O)C3=O)CC1 (stereo partly drawn) [I-64, 3-(5-(((1S,2S)-2-((((1r,4S)-4-methoxycyclohexyl)methyl)amino)cycloheptyl)oxy)-1-oxoisoindolin-2-yl)piperidine-2,6-dione] | 84% | 
O=C1CCC(N2Cc3cc(O[C@H]4CCCCC[C@@H]4NCC4CCOCC4)ccc3C2=O)C(=O)N1 (stereo partly drawn) [I-65, 3-(1-oxo-5-(((1S,2S)-2-(((tetrahydro-2H-pyran-4-yl)methyl)amino)cycloheptyl)oxy)isoindolin-2-yl)piperidine-2,6-dione] | 76% | 
CC1(CN[C@H]2CCCCC[C@@H]2Oc2ccc3c(c2)CN(C2CCC(=O)NC2=O)C3=O)COC1 (stereo partly drawn) [I-66, 3-(5-(((1S,2S)-2-(((3-methyloxetan-3-yl)methyl)amino)cycloheptyl)oxy)-1-oxoisoindolin-2-yl)piperidine-2,6-dione] | 81% | 
O=C1CCC(N2Cc3cc(O[C@H]4CCCCC[C@@H]4NCC45CC(F)(C4)C5)ccc3C2=O)C(=O)N1 (stereo partly drawn) [I-67, 3-(5-(((1S,2S)-2-(((3-fluorobicyclo[1.1.1]pentan-1-yl)methyl)amino)cycloheptyl)oxy)-1-oxoisoindolin-2-yl)piperidine-2,6-dione] | 74% | 
COC1CN([C@H]2CCCCC[C@@H]2Oc2ccc3c(c2)CN(C2CCC(=O)NC2=O)C3=O)C1 (stereo partly drawn) [I-68, 3-(5-(((1S,2S)-2-(3-methoxyazetidin-1-yl)cycloheptyl)oxy)-1-oxoisoindolin-2-yl)piperidine-2,6-dione] | 90% | 
O=C1CCC(N2Cc3cc(O[C@H]4CCCCC[C@@H]4NCC4CC(F)(F)C4)ccc3C2=O)C(=O)N1 (stereo partly drawn) [I-69, 3-(5-(((1S,2S)-2-(((3,3-difluorocyclobutyl)methyl)amino)cycloheptyl)oxy)-1-oxoisoindolin-2-yl)piperidine-2,6-dione] | 84% | 
CCCN[C@H]1CCCC[C@@H]1Oc1ccc2c(c1)CN(C1CCC(=O)NC1=O)C2=O (stereo partly drawn) [I-71, 3-(1-oxo-5-(((1S,2S)-2-(propylamino)cyclohexyl)oxy)isoindolin-2-yl)piperidine-2,6-dione] | 88% | 
CCCN(CCC)[C@H]1CCCC[C@@H]1Oc1ccc2c(c1)CN(C1CCC(=O)NC1=O)C2=O (stereo partly drawn) [I-72, 3-(5-(((1S,2S)-2-(dipropylamino)cyclohexyl)oxy)-1-oxoisoindolin-2-yl)piperidine-2,6-dione] | 57% | 
O=C1CCC(N2Cc3cc(O[C@H]4CCCC[C@@H]4NCc4ccncc4)ccc3C2=O)C(=O)N1 (stereo partly drawn) [I-73, 3-(1-oxo-5-(((1S,2S)-2-((pyridin-4-ylmethyl)amino)cyclohexyl)oxy)isoindolin-2-yl)piperidine-2,6-dione] | 66% | 
O=C1CCC(N2Cc3cc(O[C@H]4CCCC[C@@H]4N4CC5(COC5)C4)ccc3C2=O)C(=O)N1 (stereo partly drawn) [I-74, 3-(5-(((1S,2S)-2-(2-oxa-6-azaspiro[3.3]heptan-6-yl)cyclohexyl)oxy)-1-oxoisoindolin-2-yl)piperidine-2,6-dione] | 58% | 
O=C1CCC(N2Cc3cc(O[C@H]4CCCC[C@@H]4NCc4cccnc4)ccc3C2=O)C(=O)N1 (stereo partly drawn) [I-75, 3-(1-oxo-5-(((1S,2S)-2-((pyridin-3-ylmethyl)amino)cyclohexyl)oxy)isoindolin-2-yl)piperidine-2,6-dione] | 79% | 
CCn1cc(CN[C@H]2CCCC[C@@H]2Oc2ccc3c(c2)CN(C2CCC(=O)NC2=O)C3=O)cn1 (stereo partly drawn) [I-76, 3-(5-(((1S,2S)-2-(((1-ethyl-1H-pyrazol-4-yl)methyl)amino)cyclohexyl)oxy)-1-oxoisoindolin-2-yl)piperidine-2,6-dione] |  | 79%
CC(C)n1cc(CN[C@H]2CCCC[C@@H]2Oc2ccc3c(c2)CN(C2CCC(=O)NC2=O)C3=O)cn1 (stereo partly drawn) [I-77, 3-(5-(((1S,2S)-2-(((1-isopropyl-1H-pyrazol-4-yl)methyl)amino)cyclohexyl)oxy)-1-oxoisoindolin-2-yl)piperidine-2,6-dione] | 86% | 
CCN(C)[C@H]1CCCC[C@@H]1Oc1ccc2c(c1)CN(C1CCC(=O)NC1=O)C2=O (stereo partly drawn) [I-78, 3-(5-(((1S,2S)-2-(ethyl(methyl)amino)cyclohexyl)oxy)-1-oxoisoindolin-2-yl)piperidine-2,6-dione] | 50% | 
CCN[C@H]1CCCC[C@@H]1Oc1ccc2c(c1)CN(C1CCC(=O)NC1=O)C2=O (stereo partly drawn) [I-79, 3-(5-(((1S,2S)-2-(ethylamino)cyclohexyl)oxy)-1-oxoisoindolin-2-yl)piperidine-2,6-dione] | 85% | 
Cc1cccc(CN[C@H]2CCCC[C@@H]2Oc2ccc3c(c2)CN(C2CCC(=O)NC2=O)C3=O)n1 (stereo partly drawn) [I-90, 3-(5-(((1S,2S)-2-(((6-methylpyridin-2-yl)methyl)amino)cyclohexyl)oxy)-1-oxoisoindolin-2-yl)piperidine-2,6-dione] |  | 57%

More lines, main results first:

IKZF2 % protein reduction at 10 µM [1] | SMILES | IKZF2 % protein reduction at 10 µM
65% | CN(C)[C@H]1CCCC[C@@H]1Oc1ccc2c(c1)CN(C1CCC(=O)NC1=O)C2=O (stereo partly drawn) [I-80, 3-(5-(((1S,2S)-2-(dimethylamino)cyclohexyl)oxy)-1-oxoisoindolin-2-yl)piperidine-2,6-dione] | 
85% | O=C1CCC(N2Cc3cc(O[C@H]4CCCC[C@@H]4NCC4COC4)ccc3C2=O)C(=O)N1 (stereo partly drawn) [I-81, 3-(5-(((1S,2S)-2-((oxetan-3-ylmethyl)amino)cyclohexyl)oxy)-1-oxoisoindolin-2-yl)piperidine-2,6-dione] | 
58% | O=C1CCC(N2Cc3cc(O[C@H]4CCCC[C@@H]4NCCO)ccc3C2=O)C(=O)N1 (stereo partly drawn) [I-82, 3-(5-(((1S,2S)-2-((2-hydroxyethyl)amino)cyclohexyl)oxy)-1-oxoisoindolin-2-yl)piperidine-2,6-dione] | 
86% | O=C1CCC(N2Cc3cc(O[C@H]4CCCC[C@@H]4N4CCCC4)ccc3C2=O)C(=O)N1 (stereo partly drawn) [I-83, 3-(1-oxo-5-(((1S,2S)-2-(pyrrolidin-1-yl)cyclohexyl)oxy)isoindolin-2-yl)piperidine-2,6-dione] | 
35% | O=C1CCC(N2Cc3cc(O[C@H]4CCCC[C@@H]4N4CCOCC4)ccc3C2=O)C(=O)N1 (stereo partly drawn) [I-84, 3-(5-(((1S,2S)-2-morpholinocyclohexyl)oxy)-1-oxoisoindolin-2-yl)piperidine-2,6-dione] | 
69% | O=C1CCC(N2Cc3cc(O[C@H]4CCCC[C@@H]4NCc4ccccn4)ccc3C2=O)C(=O)N1 (stereo partly drawn) [I-85, 3-(1-oxo-5-(((1S,2S)-2-((pyridin-2-ylmethyl)amino)cyclohexyl)oxy)isoindolin-2-yl)piperidine-2,6-dione] | 
76% | CC(C)(O)CCN[C@H]1CCCC[C@@H]1Oc1ccc2c(c1)CN(C1CCC(=O)NC1=O)C2=O (stereo partly drawn) [I-86, 3-(5-(((1S,2S)-2-((3-hydroxy-3-methylbutyl)amino)cyclohexyl)oxy)-1-oxoisoindolin-2-yl)piperidine-2,6-dione] | 
79% | CC1(CN[C@H]2CCCC[C@@H]2Oc2ccc3c(c2)CN(C2CCC(=O)NC2=O)C3=O)COC1 (stereo partly drawn) [I-87, 3-(5-(((1S,2S)-2-(((3-methyloxetan-3-yl)methyl)amino)cyclohexyl)oxy)-1-oxoisoindolin-2-yl)piperidine-2,6-dione] | 
57% | COC1(C)CCN([C@H]2CCCC[C@@H]2Oc2ccc3c(c2)CN(C2CCC(=O)NC2=O)C3=O)CC1 (stereo partly drawn) [I-88, 3-(5-(((1S,2S)-2-(4-methoxy-4-methylpiperidin-1-yl)cyclohexyl)oxy)-1-oxoisoindolin-2-yl)piperidine-2,6-dione] | 
82% | COC1CN([C@H]2CCCC[C@@H]2Oc2ccc3c(c2)CN(C2CCC(=O)NC2=O)C3=O)C1 (stereo partly drawn) [I-89, 3-(5-(((1S,2S)-2-(3-methoxyazetidin-1-yl)cyclohexyl)oxy)-1-oxoisoindolin-2-yl)piperidine-2,6-dione] | 
58% | COc1ccc(CN[C@H]2CCCC[C@@H]2Oc2ccc3c(c2)CN(C2CCC(=O)NC2=O)C3=O)nc1 (stereo partly drawn) [I-91, 3-(5-(((1S,2S)-2-(((5-methoxypyridin-2-yl)methyl)amino)cyclohexyl)oxy)-1-oxoisoindolin-2-yl)piperidine-2,6-dione] | 
60% | COc1ccc(CN[C@H]2CCCC[C@@H]2Oc2ccc3c(c2)CN(C2CCC(=O)NC2=O)C3=O)cn1 (stereo partly drawn) [I-92, 3-(5-(((1S,2S)-2-(((6-methoxypyridin-3-yl)methyl)amino)cyclohexyl)oxy)-1-oxoisoindolin-2-yl)piperidine-2,6-dione] | 
60% | CC(C)(O)CN[C@H]1CCCC[C@@H]1Oc1ccc2c(c1)CN(C1CCC(=O)NC1=O)C2=O (stereo partly drawn) [I-93, 3-(5-(((1S,2S)-2-((2-hydroxy-2-methylpropyl)amino)cyclohexyl)oxy)-1-oxoisoindolin-2-yl)piperidine-2,6-dione] | 
